Reference: US5712417A, “Inhibitors of retroviral proteases” (Abbott Laboratories, priority 1989, dated 1998)
Where a name gives a salt, the structure may show the parent alone.

These compounds were tested against T1, HIV protease (Human immunodeficiency virus type 1 group M subtype B, UniProt P04585) (assay: Inhibition of HIV protease (cleavage of H-Ser-Phe-Asn-Phe-Opr-Gln-Ile-OH, HPLC)). Settings: not given.
T1 construct: HIV protease consists of 99 amino acids and is evidently split off by itself from the pol polyprotein
Type: biochemical
Source text: The compounds of the formula (I) according to the invention have enzyme-inhibiting properties. In particular, they inhibit the action of retroviral aspartyl proteases, such as that of HIV protease. Their enzyme-inhibitory action, which is in the milli- to subnanomolar range, can be determined as follows.
The heptapeptide: H-Ser-Phe-Asn-Phe-Pro-Gln-Ile-OH (P. L. Darke et al., Biophys. Res. Commun. 156 (1988) 297-303), inter alia, has hitherto been used as the substrate of HIV protease. HIV protease cleaves the substrate here between the second Phe and Pro.
General instructions for testing inhibitors of HIV proteases: a) Preparation of the substrate solution:
2 mg of H-Ser-Phe-Asn-Phe-Opr-Gln-Ile-OH (H-Opr-OH=5-oxaproline) are dissolved in 1 ml of MGTE15 buffer (use of ultrasound if necessary) and the solution is then filtered over a sterile filter (0.45 μm). […]
b) Preparation of the inhibitor solution:
2.5 times the desired molarity of the inhibitor per ml of solution are weighed out and dissolved in DMSO (10% of the final volume). The solution is diluted to the final volume with MGTE15 buffer and filtered over a sterile filter (0.45 μm). […]
c) Preparation of the protease solution:
5 μl of the HIV protease solution are diluted with MGTE25 buffer as required.
10 μl portions of the substrate solution are pipetted into test-tubes (16×100) with a screw cap. For the blank experiment, 10 μl of MGTE15 buffer containing 10% of DMSO are pipetted into a test-tube. 10 μl portions of the inhibitor solutions are added to the other test-tubes. The mixtures are incubated at 37° C. for 5-10 minutes and 5 μl of the protease solution are then added to each sample, After reaction at 35° C. for 2 hours, 10 or 20 μl (depending on the sensitivity of the HPLC apparatus) of each sample are then pipetted off, introduced into microvials and diluted with 120 μl of the HPLC mobile phase. […]
e) Conditions for the HPLC analysis:
20% (weight/weight) of aceto-
Column: Merck ®LICHROSORB RP18 (5 μm) 250×4
Column temperature: 42° C.
Detector parameters: 215 nm, 0.08 AUF, 18.2° C.
Analysis time: 11 minutes
Retention time of the substrate: 8.1 minutes
Retention time of the N-terminal tetrapeptide: 3.9 minutes
20 mM morpholinoethanesulfonic acid (MES)
15% (weight/volume) of glycerol
0.1% (volume/volume) of Triton ×100
1 mM phenylmethylsulfonyl fluoride (PMSF)
25% (weight/volume) of glycerol, additionally 1 mM dithiothreitol (DTT) The MES, EDTA, NaCl, DTT and PMSF are weighed into a conical flask and dissolved in a little water and the pH is brought to 6. The corresponding amount of glycerol is weighed into a measuring flask and ®Triton ×100 is pipetted in. The aqueous solution is transferred to the measuring flask and made up to the mark with water.
A 0.1M solution is prepared from orthophosphoric acid (FLUKA extra pure analytical grade). This solution is brought to exactly pH 2.5 with triethylamine (FLUKA extra pure analytical grade). The weight of the solution is determined and the corresponding amount of acetonitrile (fume cupboard) is weighed in. The mixture is mixed thoroughly and degassed with helium 5.0 for about 5 minutes.
Under the conditions chosen here, heptapeptides are separated from the N-terminal tetrapeptide formed during enzymatic cleavage. The percentage content of the tetrapeptide peak in respect of the sum of tetrapeptide+heptapeptide corresponds to the cleaving rate. The following IC50 values indicate the inhibitor concentration at which the cleavage rate is halved.

SMILES	IC50
CC(C)[C@H](NC(=O)[C@H](Cc1ccccc1)NC(=O)[C@H](O)[C@@H](O)[C@H](O)[C@H](O)CO)C(=O)N[C@@H](Cc1ccccc1)[C@@H](O)[C@H](O)[C@H](Cc1ccccc1)NC(=O)[C@@H](NC(=O)[C@H](Cc1ccccc1)NC(=O)[C@H](O)[C@@H](O)[C@H](O)[C@H](O)CO)C(C)C [Example 110, N,N'-bis-<D-Gluconyl-L-phenylalanyl-L-valyl>-2S,5S-diamino-1,6-diphenylhexane-3R,4R-diol]	1 nM

Same assay, conditions: inhibitor concentration at which the cleavage rate is halved; pH 6, 2 hours; read-out: IC50

SMILES	IC50
CC(C)[C@H](NC(=O)[C@@H](N)Cc1ccccc1)C(=O)N[C@@H](Cc1ccccc1)[C@H](O)[C@@H](O)[C@H](Cc1ccccc1)NC(=O)[C@@H](NC(=O)[C@@H](N)Cc1ccccc1)C(C)C [Example 17, N,N'-bis-(L-Phenylalanyl-L-valyl)-2S,5S-diamino-1,6-diphenylhexane-3S,4S-diol dihydrochloride]	0.85 nM
CC(C)[C@H](NC(=O)[C@H](Cc1cccc2ccccc12)NC(=O)OC(C)(C)C)C(=O)N[C@@H](Cc1ccccc1)[C@@H](O)[C@H](O)[C@H](Cc1ccccc1)NC(=O)[C@@H](NC(=O)[C@H](Cc1cccc2ccccc12)NC(=O)OC(C)(C)C)C(C)C [Example 40, N,N'-bis-(tert.-Butoxycarbonyl-L-(1-naphthyl)-alanyl-L-valyl)-2S,5S-diamino-1,6-diphenylhexane-3R,4R-diol]	13 nM
CC(C)[C@H](NC(=O)OC(C)(C)C)C(=O)N[C@H](Cc1ccccc1)[C@@H](O)[C@H](O)[C@@H](Cc1ccccc1)NC(=O)[C@@H](NC(=O)OC(C)(C)C)C(C)C [Example 127, N,N'-bis-<tert.-Butoxycarbonyl-L-valyl>-2R,5R-diamino-1,6-diphenylhexane-3R,4R-diol]	46 nM
CC(C)[C@H](NC(=O)[C@H](Cc1ccccc1)NC(=O)OC(C)(C)C)C(=O)N[C@@H](Cc1ccccc1)[C@@H](O)[C@H](O)[C@H](Cc1ccccc1)NC(=O)[C@@H](NC(=O)[C@H](Cc1ccccc1)NC(=O)OC(C)(C)C)C(C)C [Example 1, N,N,-bis-(tert.-Butoxycarbonyl-L-phenylalanyl-L-valyl)-2S,5S-diamino-1,6-diphenylhexane-3R,4R-diol]	10 nM
CC(C)[C@H](NC(=O)C(Cc1ccccc1)CS(=O)(=O)N1CCC(NC(=O)OC(C)(C)C)CC1)C(=O)N[C@@H](Cc1ccccc1)[C@@H](O)[C@H](O)[C@H](Cc1ccccc1)NC(=O)[C@@H](NC(=O)C(Cc1ccccc1)CS(=O)(=O)N1CCC(NC(=O)OC(C)(C)C)CC1)C(C)C (stereo partly drawn) [Example 98, N,N'-bis-<2-Benzyl-3-(4-tert.-butoxycarbonylamino-1-piperidylsulfonyl)-propionyl-L-valyl>-2S,5S-diamino-1,6-diphenylhexane-3R,4R-diol]	1000 nM
CC(C)[C@H](NC(=O)[C@@H](N)Cc1ccccc1)C(=O)N[C@H](Cc1ccccc1)[C@@H](O)[C@H](O)[C@@H](Cc1ccccc1)NC(=O)[C@@H](NC(=O)[C@@H](N)Cc1ccccc1)C(C)C [Example 30, N,N'-bis-(L-Phenylalanyl-L-valyl)-2R,5R-diamino-1,6-diphenylhexane-3R,4R-diol dihydrochloride]	30 nM
CC(C)[C@H](NC(=O)[C@@H](N)CCC(=O)O)C(=O)N[C@@H](Cc1ccccc1)[C@H](O)[C@@H](O)[C@H](Cc1ccccc1)NC(=O)[C@@H](NC(=O)[C@@H](N)CCC(=O)O)C(C)C [Example 82, N,N,-bis-<L-Glutamyl-L-valyl>-2S,5S-diamino-1,6-diphenyl-hexane-3S,4S-dioldihydrochloride]	9 nM
CC(C)[C@H](NC(=O)CNC(=O)OC(C)(C)C)C(=O)N[C@@H](Cc1ccccc1)[C@@H](O)[C@H](O)[C@H](Cc1ccccc1)NC(=O)[C@@H](NC(=O)CNC(=O)OC(C)(C)C)C(C)C [Example 86, N,N'-bis-<tert.-Butoxycarbonylglycyl-L-valyl>-2S,5S-diamino-1,6-diphenylhexane-3R,4R-diol]	2.2 nM
CC(C)[C@H](NC(=O)[C@H](CCS(C)(=O)=O)NC(=O)OC(C)(C)C)C(=O)N[C@@H](Cc1ccccc1)[C@@H](O)[C@H](O)[C@H](Cc1ccccc1)NC(=O)[C@@H](NC(=O)[C@H](CCS(C)(=O)=O)NC(=O)OC(C)(C)C)C(C)C [Example 90, N,N'-bis-<tert.-Butoxycarbonyl-L-(S-dioxo)methionyl-L-valyl>-2S,SS-diamino-1,6-diphenylhexane-3R,4R-diol]	2.2 nM

Other lines, results leading:

IC50	SMILES
1 nM	CC(C)[C@H](NC(=O)[C@H](Cc1ccccc1)NC(=O)[C@@H](N)CO)C(=O)N[C@@H](Cc1ccccc1)[C@@H](O)[C@H](O)[C@H](Cc1ccccc1)NC(=O)[C@@H](NC(=O)[C@H](Cc1ccccc1)NC(=O)[C@@H](N)CO)C(C)C [Example 14, N,N'-bis-(L-Seryl-L-phenylalanyl-L-valyl)-2S,5S-diamino-1,6-diphenylhexane-3R,4R-diol dihydrochloride]
49 nM	CC(C)[C@H](NC(=O)Cc1ccccn1)C(=O)N[C@@H](Cc1ccccc1)[C@@H](O)[C@H](O)[C@H](Cc1ccccc1)NC(=O)[C@@H](NC(=O)Cc1ccccn1)C(C)C [Example 58, N,N'-bis-<(2-Pyridyl)-acetyl-L-valyl>-2S,5S-diamino-1,6-diphenylhexane-3R,4R-diol]
1.3 nM	CC(C)[C@H](NC(=O)[C@@H](N)Cc1cccc2ccccc12)C(=O)N[C@@H](Cc1ccccc1)[C@@H](O)[C@H](O)[C@H](Cc1ccccc1)NC(=O)[C@@H](NC(=O)[C@@H](N)Cc1cccc2ccccc12)C(C)C [Example 39, N,N'-bis-(L-(1-Naphthyl)-alanyl-L-valyl)-2S,5S-diamino-1,6-diphenylhexane-3R,4R-diol dihydrochloride]
2 nM	CC(C)[C@H](NC(=O)[C@@H]1Cc2ccccc2CN1)C(=O)N[C@@H](Cc1ccccc1)[C@@H](O)[C@H](O)[C@H](Cc1ccccc1)NC(=O)[C@@H](NC(=O)[C@@H]1Cc2ccccc2CN1)C(C)C [Example 120, N,N'-bis-<L-1,2,3,4-Tetrahydroisoquinolin-3-ylcarbonyl-L-valyl>-2S,5S-diamino-1,6-diphenylhexane-3R,4R-diol diacetate]
4 nM	CCCCC[C@H](NC(=O)[C@@H](NC(=O)[C@@H](N)Cc1ccccc1)C(C)C)[C@@H](O)[C@H](O)[C@H](CCCCC)NC(=O)[C@@H](NC(=O)[C@@H](N)Cc1ccccc1)C(C)C [Example 151, N,N'-bis-(L-Phenylalanyl-L-valyl )-6S, 9S-diamino-tetradecane-7R, 8R-diol dihydrochloride]
1.7 nM	CC(C)[C@H](NC(=O)[C@@H](N)CC1CCCCC1)C(=O)N[C@@H](Cc1ccccc1)[C@@H](O)[C@H](O)[C@H](Cc1ccccc1)NC(=O)[C@@H](NC(=O)[C@@H](N)CC1CCCCC1)C(C)C [Example 116, N,N'-bis-<L-Cyclohexylalanyl-L-valyl>-2S,5S-diamino-1,6-diphenylhexane-3R,4R-diol dihydrochloride]
5 nM	CC(C)[C@H](NC(=O)[C@H](Cc1ccccc1)NC[C@@]1(O)OC[C@@H](O)[C@@H](O)[C@@H]1O)C(=O)N[C@@H](Cc1ccccc1)[C@H](O)[C@@H](O)[C@H](Cc1ccccc1)NC(=O)[C@@H](NC(=O)[C@H](Cc1ccccc1)NC[C@@]1(O)OC[C@@H](O)[C@@H](O)[C@@H]1O)C(C)C [Example 109, N,N'-bis-<N-(β-D-1-Deoxyfructos-1-yl-L-phenylalanyl-L-valyl>-2S,5S-diamino-1,6-diphenylhexane-3S,4S-diol diacetate]

Same assay, conditions: read-out: IC50

SMILES	IC50
CC(C)(C)OC(=O)N[C@@H](Cc1ccccc1)[C@H](O)[C@H](O)[C@H](Cc1ccccc1)NC(=O)OC(C)(C)C [Example 5, N,N'-bis-(tert.-Butoxycarbonyl)-2S,5S-diamino-1,6-diphenylhexane-3R,4S-diol]	3600 nM
